The values that follow come from patent US20260109707A1, “HETEROBIFUNCTIONAL COMPOUNDS AND METHODS OF TREATING DISEASE” (Halda Therapeutics OpCo. Inc., priority 2022, published 2026).

The subject of assay [1] is T-Rex 293 cell line SC3 cells having increased expression of androgen receptor protein due to exposure to doxycycline. In words: Cellular growth inhibition assay, T-Rex 293 SC3 cells with doxycycline (CellTiter-Glo, 72 hours). The following applies: T-Rex 293 SC3 cells with increased androgen receptor expression due to doxycycline (10 ng/mL). The class given is cell-based. On the procedure:
(§1) The following types of cells were prepared for this experiment: (i) a T-Rex 293 cell line having increased expression of androgen receptor protein due to exposure to doxycycline and (ii) a T-Rex 293 cell line lacking increased expression of androgen receptor protein. Ability of the test compounds to inhibit proliferation of the foregoing cell types was evaluated according to the procedures set forth below.
(§2) The doxycycline-inducible androgen receptor protein expressing cell line was established using the following protocol: T-Rex 293 cells were purchased from Invitrogen (Cat #R71007) and transfected using Lipofectamine 2000 with the wild-type androgen receptor protein sequence cloned into the pcDNA4/TO vector. Transfected cells were selected using 400 μg/mL Zeocin (Invitrogen Cat #R25001). Following selection, single clones were raised and maintained in Dulbecco's Modified Eagle Medium (DMEM) supplemented with 10% w/w Tetracycline-free fetal bovine serum (FBS) and 250 μg/mL Zeocin. Clones were analyzed for expression of androgen receptor protein in the presence and absence of 10 ng/mL doxycycline (Sigma Cat #D9891), and a single doxycycline-inducible clone (hereinafter “SC3”) was selected for use in downstream assays.
(§3) The SC3 cells were seeded on poly-D-lysine coated, black clear-bottom 384-well plates at 2500/well, in 25 μL Phenol Red Free Dulbecco's Modified Eagle Medium (DMEM) supplemented with 10% w/w charcoal-dextran treated fetal bovine serum (FBS) and 1% w/w pen-strep, with or without 10 ng/mL doxycycline. Pen-Strep is a commercially available mixture of penicillin G and streptomycin, which is used in mammalian cell culture media to prevent bacterial contamination. Phenol Red Free Dulbecco's Modified Eagle Medium (DMEM) supplemented with 10% w/w charcoal-dextran treated fetal bovine serum (FBS) and 1% w/w pen-strep, with or without 10 ng/mL doxycycline is herein referred to as Treatment Medium. Following seeding of cells in the plates, the plates were spun at 300×g for 30 seconds, then equilibrated to room temperature for 30 minutes, and then deposited in a humidified tissue culture incubator maintained at 37° C. with 5% CO2.
(§4) At 24 hours after seeding of the cells, dilutions of test compound were prepared in DMSO and dissolved in Treatment Medium, to achieve a final DMSO concentration of 0.5% w/w, thereby providing the Test Compound Solution. A 25 μL aliquot of the Test Compound Solution was added to cells in the well plates. An equal volume of a solution containing DMSO and Treatment Medium was used as a negative control. Following treatment of cells with Test Compound Solution or said equal volume of a solution containing DMSO and Treatment Medium, the plates were spun at 300×g for 30 seconds, and then left in an incubator for 72 hours.
(§5) At the end of the treatment duration, cell viability was quantified with CellTiter-Glo 2.0 reagent (Promega Cat #G9243). For this purpose, plates were equilibrated to room temperature for 30 minutes, and then 25 μL of CellTiter-Glo 2.0 reagent was added to cells in the plate wells. Plates were then agitated on a shaker for two minutes at 500 rpm and subsequently incubated at room temperature for 10 minutes. Following incubation, the plates were spun at 3000×g for 30 seconds, then sealed with an optical adhesive cover, and luminescence readings were measured with an EnVision Plate Reader.
(§6) Data was normalized using zero luminescence for baseline. A four-parameter non-linear regression curve fit was applied to dose-response data in GraphPad Prism data analysis software to determine the half-maximal growth inhibitory concentration (GI50) for each test compound.
A general note: ATP-based viability assays read luminescence as a measure of living cells.

Assay [2] relates to T-Rex 293 cell line SC3 cells lacking increased expression of androgen receptor protein. In words: Cellular growth inhibition assay, T-Rex 293 SC3 cells without doxycycline (CellTiter-Glo, 72 hours). The class given is cell-based. The note with it: T-Rex 293 cell line SC3 cells not exposed to doxycycline (lacking increased androgen receptor expression). On the procedure:
as §1, §2, §3, §4, §5, §6

A further assay concerns VCaP cells. In words: Cellular growth inhibition assay for VCaP cells (CellTiter-Glo, 72 hours). Type of assay: cell-based, human. The protocol:
VCaP cells were purchased from American Type Cell Culture (ATCC Cat #CRL2876) and then seeded on poly-D-lysine coated, black clear-bottom 384-well plates at 5000/well in 25 μL Dulbecco's Modified Eagle Medium (DMEM) supplemented with 10% w/w Fetal bovine serum (FBS) and 1% w/w Pen-Strep. Pen-Strep is a commercially available mixture of penicillin G and streptomycin, which is used in mammalian cell culture media to prevent bacterial contamination. Dulbecco's Modified Eagle Medium (DMEM) supplemented with 10% w/w fetal bovine serum (FBS) and 1% w/w Pen-Strep is herein referred to as Treatment Medium. Following seeding of cells in the plates, the plates were spun at 300×g for 30 seconds, then equilibrated to room temperature for 30 minutes, and then deposited in a humidified tissue culture incubator maintained at 37° C. with 5% C0-2.
as §4, §5, §6

Structures are written as SMILES. Read-outs that look alike come from different tables or passages of the source.

The GI50 is the concentration giving 50% growth inhibition. A low value points to more potent growth inhibition. As to `Cc1sc2c(c1C)C(c1ccc(C3CCC4(CC3)CCN(c3ccc(C(=O)N[C@H]5CC[C@H](Oc6ccc(C#N)c(Cl)c6)CC5)nn3)C4)cc1)=NC(C(F)(F)F)c1nnc(C)n1-2` (mixture of isomers) [I-742], the GI50 was greater than 3000 nM in assay [1], greater than 3000 nM in assay [2] and less than 500 nM in the assay on VCaP cells.
As to `Cc1sc2c(c1C)C(c1ccc(NCC3CCN(c4ncc(C(=O)N[C@H]5CC[C@H](Oc6ccc(C#N)c(Cl)c6)CC5)cn4)C3)cc1)=NC(Cc1ncco1)c1nnc(C)n1-2` (mixture of isomers) [I-788], the GI50 (in assay [1]; in assay [2]; in the assay on VCaP cells) was less than 500 nM in each case.
For the compound `Cc1sc2c(c1C)C(c1ccc(C#CC3CC4(C3)CN(c3ccc(C(=O)N[C@H]5CC[C@H](Oc6ccc(C#N)c(Cl)c6)CC5)nn3)C4)cc1F)=NC(Cc1ncco1)c1nnc(C)n1-2` (mixture of isomers) [I-828, N-[4-(3-chloro-4-cyano-phenoxy)cyclohexyl]-6-[6-[2-[3-fluoro-4-[4,5,13-trimethyl-9-(oxazol-2-ylmethyl)-3-thia-1,8,11,12-tetrazatricyclo[8.3.0.02,6]trideca-2(6),4,7,10,12-pentaen-7-yl]phenyl]ethynyl]-2-azaspiro[3.3]heptan-2-yl]pyridazine-3-carboxamide], the concentration for 50% growth inhibition (GI50) was less than 500 nM in assay [1] (72 h); less than 500 nM in assay [2] (72 h); less than 500 nM with VCaP cells (Homo sapiens, VCaP, 72 h).
In the case of `COCC[C@@H]1N=C(c2ccc(C3CCC4(CC3)CCN(c3ccc(C(=O)N[C@H]5CC[C@H](Oc6ccc(C#N)c(Cl)c6)CC5)nn3)C4)cc2)c2c(sc(C)c2C)-n2c(C)nnc21` (single isomer, unassigned) [I-618], the GI50 (in assay [1]; in assay [2]; in the assay with VCaP cells) was less than 500 nM throughout.
Consider `COCC[C@@H]1N=C(c2ccc(C3CCC4(CC3)CCN(c3ccc(C(=O)N[C@H]5CC[C@H](Oc6ccc(C#N)c(Cl)c6)CC5)nn3)C4)cc2)c2c(sc(C)c2C)-n2c(C)nnc21` (single isomer, unassigned) [I-619], for which the results for the concentration for 50% growth inhibition (GI50) (in assay [1]; in assay [2]; with VCaP cells) were less than 500 nM, greater than 3000 nM and less than 500 nM, respectively.
Regarding `CC[C@@H]1N=C(c2ccc(C3CCC4(CC3)CCN(c3ccc(C(=O)N[C@H]5CC[C@H](Oc6ccc(C#N)c(Cl)c6)CC5)nn3)C4)cc2)c2c(sc(C)c2C)-n2c(C)nnc21` (single isomer, unassigned) [I-633], the GI50 is less than 500 nM in assay [1], less than 500 nM in assay [2] and 1500 to 3000 nM with VCaP cells.
On to `CC[C@@H]1N=C(c2ccc(C3CCC4(CC3)CCN(c3ccc(C(=O)N[C@H]5CC[C@H](Oc6ccc(C#N)c(Cl)c6)CC5)nn3)C4)cc2)c2c(sc(C)c2C)-n2c(C)nnc21` (single isomer, unassigned) [I-634], for which the concentration for 50% growth inhibition (GI50) was less than 500 nM in assay [1], 500 to 1500 nM in assay [2] and less than 500 nM in the assay on VCaP cells.
`Cc1sc2c(c1C)C(c1ccc(N3CCC4(CC3)CCN(c3ccc(C(=O)N[C@H]5CC[C@H](Oc6ccc(C#N)c(Cl)c6)CC5)nn3)C4)cc1)=NC(C(F)(F)F)c1nnc(C)n1-2` (single isomer, unassigned) [I-719]: the concentration for 50% growth inhibition (GI50) in assay [1] is less than 500 nM; in assay [2] it was greater than 3000 nM; in the assay with VCaP cells, less than 500 nM.
Consider `Cc1sc2c(c1C)C(c1ccc(N3CCC4(CC3)CCN(c3ccc(C(=O)N[C@H]5CC[C@H](Oc6ccc(C#N)c(Cl)c6)CC5)nn3)C4)cc1)=NC(C(F)(F)F)c1nnc(C)n1-2` (single isomer, unassigned) [I-720], for which the GI50 (in assay [1]; in assay [2]; in the assay on VCaP cells) was greater than 3000 nM throughout.
For the compound `Cc1sc2c(c1C)C(c1ccc(N3CCOC4(CCN(c5ccc(C(=O)N[C@H]6CC[C@H](Oc7ccc(C#N)c(Cl)c7)CC6)nn5)C4)C3)cc1)=N[C@@H](C)c1nnc(C)n1-2` (single isomer, unassigned) [I-827], the 50% growth inhibitory concentration (GI50) in assay [1] (72 h) was less than 500 nM; in assay [2] (72 h), less than 500 nM; with VCaP cells (Homo sapiens, VCaP, 72 h) it was less than 500 nM.
`Cc1sc2c(c1C)C(c1ccc(Cl)cc1)=N[C@@H](CC(=O)NCCOCCOCCOCCOCCOCCOCCOC1CCN(c3ccc(C(=O)N[C@H]4CC[C@H](Oc5ccc(C#N)c(Cl)c5)CC4)nn3)CC1)c1nnc(C)n1-2` [I-4, N-[4-(3-chloro-4-cyano-phenoxy)cyclohexyl]-6-[14-[2-[2-[2-[2-[2-[2-[2-[[2-[(9S)-7-(4-chlorophenyl)-4,5,13-trimethyl-3-thia-1,8,11,12-tetrazatricyclo[8.3.0.2,6]trideca-2(6),4,7,10,12-pentaen-9-yl]acetyl]amino]ethoxy]ethoxy]ethoxy]ethoxy]ethoxy]ethoxy]ethoxy]-1-piperidyl]pyridazine-3-carboxamide]: the 50% growth inhibitory concentration (GI50) in assay [1] (72 h) is 500 to 1500 nM; in assay [2] (72 h), greater than 3000 nM; with VCaP cells (Homo sapiens, VCaP, 72 h), less than 500 nM.
Taken in the same sequence, the figures for `Cc1sc2c(c1C)C(c1ccc(Cl)cc1)=N[C@@H](CC(=O)NCCCCCOC1CCN(c3ccc(C(=O)N[C@H]4CC[C@H](Oc5ccc(C#N)c(Cl)c5)CC4)nn3)CC1)c1nnc(C)n1-2` [I-5] were less than 500 nM, less than 500 nM and less than 500 nM.
The matching figures for `CCNC(=O)C[C@@H]1N=C(c2cccc(OCCOCCOCCOC3CCN(c4ncc(C(=O)N[C@H]5CC[C@H](Oc6ccc(C#N)c(Cl)c6)CC5)cn4)CC3)c2)c2c(sc(C)c2C)-n2c(C)nnc21` [I-11]: less than 500 nM, greater than 3000 nM and 500 to 1500 nM.
Take `Cc1sc2c(c1C)C(c1ccc(C#CC3CC4(CCCN(c5ccc(C(=O)N[C@H]6CC[C@H](Oc7ccc(C#N)c(Cl)c7)CC6)nn5)C4)C3)cc1)=NC1(CC1)c1nnc(C)n1-2` (some centres unmarked) [I-445]: the 50% growth inhibitory concentration (GI50) was greater than 3000 nM in assay [2] (72 h) and less than 500 nM with VCaP cells (Homo sapiens, VCaP, 72 h).
The matching figures for `Cc1sc2c(c1C)C(c1ccc(N3CCC4(CCN(c5ccc(C(=O)N[C@H]6CC[C@H](Oc7ccc(C#N)c(Cl)c7)CC6)nn5)C4)C3)cc1)=N[C@@H](C)c1nnc(C)n1-2` (some centres unmarked) [I-512]: less than 500 nM and less than 500 nM.
`Cc1sc2c(c1C)C(c1ccc(CC3CC(OC4CCN(c5ccc(C(=O)NC6CCC(Oc7ccc(C#N)c(Cl)c7)CC6)nn5)CC4)C3)cc1)=NC(C)c1nnc(C)n1-2` (centres unmarked) [I-588] yielded a GI50 in the assay with VCaP cells (Homo sapiens, VCaP, 72 h) of less than 500 nM.
Turning to `COC[C@@H]1N=C(c2ccc(C3CCC4(CC3)CCN(c3ccc(C(=O)N[C@H]5CC[C@H](Oc6ccc(C#N)c(Cl)c6)CC5)nn3)C4)cc2)c2c(sc(C)c2C)-n2c(C)nnc21` (some centres unmarked) [I-601], the 50% growth inhibitory concentration (GI50) was less than 500 nM in assay [1] (72 h) and less than 500 nM in the assay with VCaP cells (Homo sapiens, VCaP, 72 h).
For `Cc1sc2c(c1C)C(c1ccc(N3C[C@@H]4CN(c5ccc(C(=O)N[C@H]6CC[C@H](Oc7ccc(C#N)c(Cl)c7)CC6)nn5)C[C@H]4C3)cc1)=N[C@@H](C)c1nnc(C)n1-2` [I-677], the GI50 in assay [1] (72 h) is less than 500 nM; in the assay on VCaP cells (Homo sapiens, VCaP, 72 h) it was less than 500 nM.
Turning to `COC[C@@H]1N=C(c2ccc(OC3CC4(CCCN(c5ccc(C(=O)N[C@H]6CC[C@H](Oc7ccc(C#N)c(Cl)c7)CC6)nn5)C4)C3)cc2)c2c(sc(C)c2C)-n2c(C)nnc21` (some centres unmarked) [I-693], the GI50 in assay [2] (72 h) was less than 500 nM; in the assay with VCaP cells (Homo sapiens, VCaP, 72 h), less than 500 nM.
